Data from ChEMBL document CHEMBL5653631, “A Potent and Selective ULK1 Inhibitor Suppresses Autophagy and Sensitizes Cancer Cells to Nutrient Stress” (iScience, 2018).

Assays:
[1] = biological target: Ephrin type-A receptor 7 (Homo sapiens) (UniProt Q15375); test: Inhibition of human recombinant EphA7 at 40 nM in presence of ATP by radiometric assay relative to control
[2] = biological target: T1, Serine/threonine-protein kinase 3 (Homo sapiens) (UniProt Q13188); test: Inhibition of human recombinant MST2 at 40 nM in presence of ATP by radiometric assay relative to control
T1 sequence (whole entry): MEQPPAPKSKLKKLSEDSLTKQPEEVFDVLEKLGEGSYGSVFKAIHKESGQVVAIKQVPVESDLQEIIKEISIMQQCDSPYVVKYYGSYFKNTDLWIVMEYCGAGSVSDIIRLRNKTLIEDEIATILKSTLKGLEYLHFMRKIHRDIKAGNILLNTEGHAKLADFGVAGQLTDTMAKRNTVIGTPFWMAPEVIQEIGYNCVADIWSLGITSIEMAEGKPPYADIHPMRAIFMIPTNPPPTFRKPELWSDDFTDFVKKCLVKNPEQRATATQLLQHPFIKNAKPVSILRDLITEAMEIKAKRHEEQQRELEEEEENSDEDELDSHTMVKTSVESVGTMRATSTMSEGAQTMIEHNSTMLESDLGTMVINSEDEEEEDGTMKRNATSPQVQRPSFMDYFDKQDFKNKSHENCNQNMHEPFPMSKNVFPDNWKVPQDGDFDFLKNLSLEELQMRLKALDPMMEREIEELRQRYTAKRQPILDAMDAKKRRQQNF

[3] = biological target: T2, Serine/threonine-protein kinase Sgk1 (Homo sapiens) (UniProt O00141); test: Inhibition of human recombinant SGK1 at 40 nM in presence of ATP by radiometric assay relative to control
T2 sequence (whole entry): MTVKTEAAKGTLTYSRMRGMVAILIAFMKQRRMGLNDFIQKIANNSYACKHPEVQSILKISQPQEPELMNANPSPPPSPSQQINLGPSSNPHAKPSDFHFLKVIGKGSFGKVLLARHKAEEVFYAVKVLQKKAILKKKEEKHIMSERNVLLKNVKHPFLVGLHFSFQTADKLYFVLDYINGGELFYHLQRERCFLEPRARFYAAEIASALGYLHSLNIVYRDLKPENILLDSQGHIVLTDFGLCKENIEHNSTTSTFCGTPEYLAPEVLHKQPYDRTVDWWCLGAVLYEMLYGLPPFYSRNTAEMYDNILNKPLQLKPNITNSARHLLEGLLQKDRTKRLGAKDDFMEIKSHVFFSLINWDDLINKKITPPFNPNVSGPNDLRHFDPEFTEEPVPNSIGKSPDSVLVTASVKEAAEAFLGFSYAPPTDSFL

[4] = biological target: T3, Serine/threonine-protein kinase TAO1 (Homo sapiens) (UniProt Q7L7X3); test: Inhibition of human recombinant TAO1 at 40 nM in presence of ATP by radiometric assay relative to control
T3 sequence (whole entry): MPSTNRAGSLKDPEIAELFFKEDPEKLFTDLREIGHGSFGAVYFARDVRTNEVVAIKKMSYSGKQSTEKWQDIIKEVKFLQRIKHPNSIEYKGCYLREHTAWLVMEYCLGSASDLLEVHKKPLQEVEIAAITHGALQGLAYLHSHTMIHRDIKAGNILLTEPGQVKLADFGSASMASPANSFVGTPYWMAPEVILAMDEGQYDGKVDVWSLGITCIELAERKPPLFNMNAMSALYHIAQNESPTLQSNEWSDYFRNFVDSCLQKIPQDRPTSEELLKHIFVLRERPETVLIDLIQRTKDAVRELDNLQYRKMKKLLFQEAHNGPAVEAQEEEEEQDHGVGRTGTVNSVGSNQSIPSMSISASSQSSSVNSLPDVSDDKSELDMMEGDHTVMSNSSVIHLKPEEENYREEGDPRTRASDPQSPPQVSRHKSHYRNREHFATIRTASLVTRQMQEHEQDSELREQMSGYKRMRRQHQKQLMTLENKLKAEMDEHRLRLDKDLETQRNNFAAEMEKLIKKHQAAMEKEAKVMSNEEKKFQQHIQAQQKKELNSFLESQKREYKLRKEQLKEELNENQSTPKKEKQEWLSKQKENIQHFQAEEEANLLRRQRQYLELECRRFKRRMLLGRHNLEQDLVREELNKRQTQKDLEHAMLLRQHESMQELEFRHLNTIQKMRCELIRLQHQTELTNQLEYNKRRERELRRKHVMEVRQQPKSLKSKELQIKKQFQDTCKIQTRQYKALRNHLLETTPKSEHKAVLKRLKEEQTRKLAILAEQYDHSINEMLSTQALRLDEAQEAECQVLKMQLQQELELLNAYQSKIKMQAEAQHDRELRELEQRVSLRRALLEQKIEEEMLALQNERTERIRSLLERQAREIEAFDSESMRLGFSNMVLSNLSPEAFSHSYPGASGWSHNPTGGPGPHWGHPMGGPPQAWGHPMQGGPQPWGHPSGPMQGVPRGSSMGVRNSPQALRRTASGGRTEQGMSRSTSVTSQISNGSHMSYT

[5] = biological target: Dual specificity protein kinase CLK2 (Homo sapiens) (UniProt P49760); test: Inhibition of human recombinant CLK2 at 40 nM related to control ULK1
[6] = biological target: Platelet-derived growth factor receptor alpha (Homo sapiens) (UniProt P16234); test: Inhibition of human recombinant PDGFRa at 40 nM related to control ULK1
[7] = biological target: Serine/threonine-protein kinase WNK1 (Homo sapiens) (UniProt Q9H4A3); test: Inhibition of human recombinant Wnk1 at 40 nM related to control ULK1
[8] = biological target: Death-associated protein kinase 1 (Homo sapiens) (UniProt P53355); test: Inhibition of human recombinant DAPK1 at 15 nM in presence of ATP by radiometric assay relative to control
[9] = biological target: Dual specificity tyrosine-phosphorylation-regulated kinase 1A (Homo sapiens) (UniProt Q13627); test: Inhibition of human recombinant DYRK1A at 15 nM in presence of ATP by radiometric assay relative to control
[10] = biological target: Vascular endothelial growth factor receptor 1 (Homo sapiens) (UniProt P17948); test: Inhibition of human recombinant FLT1 at 15 nM in presence of ATP by radiometric assay relative to control
[11] = biological target: Tyrosine-protein kinase HCK (Homo sapiens) (UniProt P08631); test: Inhibition of human recombinant HCK at 15 nM in presence of ATP by radiometric assay relative to control
[12] = biological target: Ribosomal protein S6 kinase alpha-3 (Homo sapiens) (UniProt P51812); test: Inhibition of human recombinant RSK2 at 500 nM in presence of ATP by radiometric assay relative to control
[13] = biological target: Aurora kinase B (Homo sapiens) (UniProt Q96GD4); test: Inhibition of human recombinant AurB at 500 nM related to control ULK1
[14] = biological target: Cyclin-dependent kinase 12 (Homo sapiens) (UniProt Q9NYV4); test: Inhibition of human recombinant CRK7 at 500 nM related to control ULK1
[15] = biological target: Protein kinase C iota type (Homo sapiens) (UniProt P41743); test: Inhibition of human recombinant PKCi at 500 nM in presence of ATP by radiometric assay relative to control
Sequence of Protein kinase C iota type (Homo sapiens) (P41743 whole entry, looked up): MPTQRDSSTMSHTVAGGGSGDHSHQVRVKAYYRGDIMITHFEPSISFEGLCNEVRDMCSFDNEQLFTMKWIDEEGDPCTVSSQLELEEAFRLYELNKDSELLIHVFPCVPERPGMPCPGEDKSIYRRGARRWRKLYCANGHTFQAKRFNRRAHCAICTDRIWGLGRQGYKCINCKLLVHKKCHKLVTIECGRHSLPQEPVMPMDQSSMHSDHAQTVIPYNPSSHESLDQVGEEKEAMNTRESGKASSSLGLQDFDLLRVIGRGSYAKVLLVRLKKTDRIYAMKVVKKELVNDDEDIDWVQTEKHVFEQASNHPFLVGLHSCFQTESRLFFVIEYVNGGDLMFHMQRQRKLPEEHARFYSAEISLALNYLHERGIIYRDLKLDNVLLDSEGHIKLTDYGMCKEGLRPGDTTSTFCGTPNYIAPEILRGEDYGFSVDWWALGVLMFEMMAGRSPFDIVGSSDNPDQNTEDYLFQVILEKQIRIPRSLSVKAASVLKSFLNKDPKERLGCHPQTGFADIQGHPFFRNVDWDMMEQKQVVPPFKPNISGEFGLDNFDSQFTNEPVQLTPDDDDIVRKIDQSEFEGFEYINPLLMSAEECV

Sequence of Ephrin type-A receptor 7 (Homo sapiens) (Q15375 28-998 limits assumed): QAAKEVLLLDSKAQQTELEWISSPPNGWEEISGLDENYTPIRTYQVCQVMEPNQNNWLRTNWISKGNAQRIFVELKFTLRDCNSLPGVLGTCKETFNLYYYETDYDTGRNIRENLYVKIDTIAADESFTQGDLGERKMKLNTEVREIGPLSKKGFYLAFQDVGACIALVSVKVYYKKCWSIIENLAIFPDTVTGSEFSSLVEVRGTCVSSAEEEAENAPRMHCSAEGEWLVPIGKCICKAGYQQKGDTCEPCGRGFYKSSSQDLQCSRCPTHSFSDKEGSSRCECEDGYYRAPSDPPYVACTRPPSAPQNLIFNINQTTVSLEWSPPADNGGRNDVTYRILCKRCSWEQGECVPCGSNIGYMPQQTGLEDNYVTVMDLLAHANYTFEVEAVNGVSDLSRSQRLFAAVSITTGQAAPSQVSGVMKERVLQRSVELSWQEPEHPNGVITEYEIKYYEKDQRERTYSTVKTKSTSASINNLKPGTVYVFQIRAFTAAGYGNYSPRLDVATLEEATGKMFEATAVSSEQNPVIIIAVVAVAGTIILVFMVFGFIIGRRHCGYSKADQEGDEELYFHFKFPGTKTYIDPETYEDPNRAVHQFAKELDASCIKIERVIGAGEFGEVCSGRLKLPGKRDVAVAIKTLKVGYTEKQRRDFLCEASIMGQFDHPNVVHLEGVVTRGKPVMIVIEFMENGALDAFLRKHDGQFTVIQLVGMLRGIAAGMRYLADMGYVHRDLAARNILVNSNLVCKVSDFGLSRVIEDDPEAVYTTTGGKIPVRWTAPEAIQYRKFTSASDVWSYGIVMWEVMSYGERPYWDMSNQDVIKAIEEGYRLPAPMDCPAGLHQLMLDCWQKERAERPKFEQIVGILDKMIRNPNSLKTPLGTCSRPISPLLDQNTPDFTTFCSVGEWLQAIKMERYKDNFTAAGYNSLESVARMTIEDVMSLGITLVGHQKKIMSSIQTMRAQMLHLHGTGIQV
Sequence of Aurora kinase B (Homo sapiens) (Q96GD4 whole entry): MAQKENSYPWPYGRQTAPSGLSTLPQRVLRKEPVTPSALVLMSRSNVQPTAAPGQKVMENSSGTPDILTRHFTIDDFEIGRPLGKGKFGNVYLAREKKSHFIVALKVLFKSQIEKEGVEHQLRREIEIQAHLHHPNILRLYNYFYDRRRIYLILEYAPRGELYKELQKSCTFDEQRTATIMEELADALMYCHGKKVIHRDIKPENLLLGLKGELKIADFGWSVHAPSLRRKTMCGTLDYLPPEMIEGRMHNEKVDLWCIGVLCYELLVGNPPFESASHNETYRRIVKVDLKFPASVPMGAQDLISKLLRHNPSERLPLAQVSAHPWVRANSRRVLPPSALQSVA
Sequence of Vascular endothelial growth factor receptor 1 (Homo sapiens) (P17948 whole entry): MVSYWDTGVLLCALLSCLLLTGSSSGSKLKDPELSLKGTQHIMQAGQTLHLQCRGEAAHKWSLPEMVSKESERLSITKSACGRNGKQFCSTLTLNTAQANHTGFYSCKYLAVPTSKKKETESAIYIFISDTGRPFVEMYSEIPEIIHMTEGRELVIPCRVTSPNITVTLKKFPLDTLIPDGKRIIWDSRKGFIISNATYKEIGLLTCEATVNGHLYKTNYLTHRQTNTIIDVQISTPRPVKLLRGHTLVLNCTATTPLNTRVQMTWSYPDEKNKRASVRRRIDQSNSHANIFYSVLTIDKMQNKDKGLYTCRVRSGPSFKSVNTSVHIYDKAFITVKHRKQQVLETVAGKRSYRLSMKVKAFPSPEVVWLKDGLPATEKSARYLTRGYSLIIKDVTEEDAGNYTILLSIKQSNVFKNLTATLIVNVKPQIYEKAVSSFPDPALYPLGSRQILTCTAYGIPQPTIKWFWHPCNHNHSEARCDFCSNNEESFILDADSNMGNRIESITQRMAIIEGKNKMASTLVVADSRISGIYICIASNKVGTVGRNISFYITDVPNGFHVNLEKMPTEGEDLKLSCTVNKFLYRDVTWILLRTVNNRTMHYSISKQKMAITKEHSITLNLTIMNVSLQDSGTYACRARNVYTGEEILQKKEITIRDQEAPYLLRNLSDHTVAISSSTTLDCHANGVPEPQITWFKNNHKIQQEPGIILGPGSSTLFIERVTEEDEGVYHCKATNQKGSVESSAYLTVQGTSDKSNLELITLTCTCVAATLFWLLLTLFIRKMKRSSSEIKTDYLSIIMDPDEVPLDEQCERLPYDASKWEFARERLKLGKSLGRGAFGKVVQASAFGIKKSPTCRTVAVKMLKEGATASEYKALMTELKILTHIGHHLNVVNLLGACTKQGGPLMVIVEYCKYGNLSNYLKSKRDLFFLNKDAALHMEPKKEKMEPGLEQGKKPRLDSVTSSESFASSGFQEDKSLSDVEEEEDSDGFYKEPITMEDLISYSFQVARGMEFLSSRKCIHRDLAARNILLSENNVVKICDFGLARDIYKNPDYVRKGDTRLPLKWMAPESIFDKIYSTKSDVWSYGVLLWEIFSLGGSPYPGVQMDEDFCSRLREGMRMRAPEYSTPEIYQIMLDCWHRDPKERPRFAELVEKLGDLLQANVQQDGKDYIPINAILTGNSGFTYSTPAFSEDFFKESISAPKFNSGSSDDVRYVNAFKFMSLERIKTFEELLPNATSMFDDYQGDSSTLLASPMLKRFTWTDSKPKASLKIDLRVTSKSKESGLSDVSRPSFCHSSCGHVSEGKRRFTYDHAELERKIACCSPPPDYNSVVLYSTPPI
Sequence of Platelet-derived growth factor receptor alpha (Homo sapiens) (P16234 whole entry): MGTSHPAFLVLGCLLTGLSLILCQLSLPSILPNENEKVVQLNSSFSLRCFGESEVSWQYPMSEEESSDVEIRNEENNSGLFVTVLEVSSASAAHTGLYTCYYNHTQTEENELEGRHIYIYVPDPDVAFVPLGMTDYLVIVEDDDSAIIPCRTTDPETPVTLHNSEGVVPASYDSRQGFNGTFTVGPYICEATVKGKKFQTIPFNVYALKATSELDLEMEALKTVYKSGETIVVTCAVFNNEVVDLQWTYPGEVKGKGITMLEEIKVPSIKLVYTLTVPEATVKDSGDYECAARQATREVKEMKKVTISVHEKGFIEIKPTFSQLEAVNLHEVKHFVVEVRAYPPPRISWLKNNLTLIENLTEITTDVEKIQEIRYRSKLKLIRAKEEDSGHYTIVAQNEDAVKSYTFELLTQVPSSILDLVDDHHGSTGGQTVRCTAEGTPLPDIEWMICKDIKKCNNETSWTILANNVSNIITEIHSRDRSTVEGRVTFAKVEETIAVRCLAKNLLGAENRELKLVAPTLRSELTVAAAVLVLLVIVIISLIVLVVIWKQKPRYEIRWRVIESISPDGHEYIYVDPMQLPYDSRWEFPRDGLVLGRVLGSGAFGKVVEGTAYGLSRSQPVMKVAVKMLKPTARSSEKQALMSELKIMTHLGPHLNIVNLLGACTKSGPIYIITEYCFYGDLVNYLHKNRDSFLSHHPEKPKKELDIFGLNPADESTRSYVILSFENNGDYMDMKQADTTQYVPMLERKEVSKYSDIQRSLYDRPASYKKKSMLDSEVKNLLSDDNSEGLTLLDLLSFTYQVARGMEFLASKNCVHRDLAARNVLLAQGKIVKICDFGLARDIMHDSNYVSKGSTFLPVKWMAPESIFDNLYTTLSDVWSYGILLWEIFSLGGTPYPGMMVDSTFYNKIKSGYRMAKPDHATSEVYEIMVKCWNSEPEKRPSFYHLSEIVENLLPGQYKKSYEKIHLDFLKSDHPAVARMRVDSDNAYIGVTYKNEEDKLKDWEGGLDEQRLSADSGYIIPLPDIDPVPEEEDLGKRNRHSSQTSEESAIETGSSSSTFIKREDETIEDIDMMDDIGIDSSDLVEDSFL
Sequence of Dual specificity protein kinase CLK2 (Homo sapiens) (P49760 whole entry, looked up): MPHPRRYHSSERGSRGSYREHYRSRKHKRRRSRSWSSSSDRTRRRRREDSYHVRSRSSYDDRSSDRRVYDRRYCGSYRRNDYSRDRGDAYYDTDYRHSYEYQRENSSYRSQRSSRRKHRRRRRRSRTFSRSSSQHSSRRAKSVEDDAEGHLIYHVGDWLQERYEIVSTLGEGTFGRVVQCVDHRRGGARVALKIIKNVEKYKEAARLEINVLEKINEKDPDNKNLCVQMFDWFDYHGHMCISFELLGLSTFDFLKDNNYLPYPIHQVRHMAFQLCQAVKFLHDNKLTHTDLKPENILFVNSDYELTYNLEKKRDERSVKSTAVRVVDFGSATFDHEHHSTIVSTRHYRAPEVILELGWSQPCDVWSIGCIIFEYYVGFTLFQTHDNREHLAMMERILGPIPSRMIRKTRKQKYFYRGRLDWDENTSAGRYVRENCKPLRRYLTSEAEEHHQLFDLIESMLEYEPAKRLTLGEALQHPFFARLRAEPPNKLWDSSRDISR

O=C(N[C@@H](C1CC1)C(F)(F)F)c1cc(-c2cnn3cc(-c4ccc(F)cc4)cnc23)cs1
inhibition [1]: 0%
inhibition [2]: 0%
inhibition [3]: 7%
inhibition [4]: 0%
fold change (FC) [5]: 0.26
fold change (FC) [6]: 0
fold change (FC) [7]: 0.16

CC(C)[C@H](NC(=O)c1cc(-c2cnn3cc(-c4ccc(OCCN5CCCCC5)cc4)cnc23)cs1)C(F)(F)F
inhibition [8]: 4%
inhibition [9]: 73%
inhibition [10]: 9%
inhibition [11]: 26%

CNC(=O)c1ccccc1Oc1nc(Nc2cc(OC)c(OC)c(OC)c2)ncc1Br
inhibition [12]: 37%
fold change (FC) [13]: 1.24
fold change (FC) [14]: 0
inhibition [15]: 0%
